Drawing on US12240862B2, “Inhibitors of peptidylarginine deiminases” (Gilead Sciences, Inc., priority 2020, dated 2025), this text covers IC50 for 14 compounds.

SMILES strings stand for the structures.

This test deals with T1, human PAD4 (Homo sapiens, UniProt Q9UM07).
T1 construct: human PAD4 (NM_012387), A2P663, was PCR amplified; His-SUMO (N, cleaved yes); made in house; host or cells: E. coli BL21(DE3)
T1 sequence (Q9UM07 2-663): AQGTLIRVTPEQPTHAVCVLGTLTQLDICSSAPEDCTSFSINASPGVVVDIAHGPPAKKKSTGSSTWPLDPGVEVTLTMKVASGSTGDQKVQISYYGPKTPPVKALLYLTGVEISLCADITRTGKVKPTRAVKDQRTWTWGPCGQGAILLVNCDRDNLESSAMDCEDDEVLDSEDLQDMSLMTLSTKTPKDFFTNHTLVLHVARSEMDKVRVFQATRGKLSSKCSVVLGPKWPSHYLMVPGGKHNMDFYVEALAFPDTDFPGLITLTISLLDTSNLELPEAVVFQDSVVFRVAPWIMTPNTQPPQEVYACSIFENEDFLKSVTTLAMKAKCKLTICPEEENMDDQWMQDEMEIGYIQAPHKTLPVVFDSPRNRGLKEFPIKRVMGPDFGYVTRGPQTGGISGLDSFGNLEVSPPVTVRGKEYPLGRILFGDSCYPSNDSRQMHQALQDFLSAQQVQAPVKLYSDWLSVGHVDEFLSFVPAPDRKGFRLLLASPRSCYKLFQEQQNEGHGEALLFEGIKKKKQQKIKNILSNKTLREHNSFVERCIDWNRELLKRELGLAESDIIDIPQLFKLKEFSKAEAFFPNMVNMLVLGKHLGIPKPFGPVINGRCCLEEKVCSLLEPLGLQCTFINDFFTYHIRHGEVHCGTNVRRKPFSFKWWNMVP
In words: In vitro PAD4 BAEE biochemical assay. The settings on record: human PAD4, BAEE substrate; 5 nM PAD4, 2 mM calcium chloride, 3 mM BAEE; geometric mean of multiple experiments. The procedure:
The PCR product was ligated into linearized pET-SUMO vector (Invitrogen, Carlsbad, CA), which is part of the Champion™ pET SUMO Protein Expression System. After sequence verification for the correct orientation, the pET-SUMO-hPAD4 expression plasmid was transformed into BL21(DE3) cells.
E. Coli BL21(DE3) cells were inoculated in LB medium with kanamycin at 37° C. until A600 nm reached about 0.5. Protein expression was induced by addition of 0.5 mM IPTG (final) and continued overnight at 16° C. at 220 rpm.
Cells were harvested by centrifugation at 5000 rpm for 10 minutes at 4° C. The pellet was resuspended in 300 ml lysis buffer (20 mM Tris-HCl, pH 8.0, 1 mM EDTA, 500 mM NaCl, 1 mM (tris(2-carboxyethyl)phosphine) (TCEP), 10% glycerol, and 1% Triton X100 and EDTA free protease inhibitor) and lysed by 3× passage through a microfluidizer (Microfluidics, Newton, MA) at 18,000 psi. The cell lysate was clarified by centrifugation at 30,000 rpm for 60 minutes at 4° C. […] Bound protein was eluted with a 0-100% linear gradient of 100 mL Ni-B buffer (Ni A buffer+0.5 M Imidazole).
The protein was then reloaded onto a Ni—HP column for a reverse purification step and recovered in flow through fraction. The protein with His-Sumo tag removed was then polished using a 16/60 Superdex-200 gel filtration column with gel filtration buffer (20 mM Tris pH 8.0, NaCl 400 mM and 1 mM TCEP). The fractions containing the protein were pulled and frozen at −80° C.
The enzymatic activity of human PAD4 was monitored in a biochemical assay in the presence or absence of compounds using the small peptidyl arginine mimic BAEE (Na-Benzoyl-L-arginine ethyl ester hydrochloride) as substrate. PAD4 activity led to deamination of BAEE and release of ammonia. Levels of ammonia were monitored by using an amine coupling reaction and were indicative of PAD4 enzymatic activity.
One hundred nanoliters of test compounds dissolved in DMSO at various concentrations were dispensed into a 384-well black OptiPlate using a Labcyte Echo instrument. Ten microliters of a solution of recombinant PAD4 and calcium chloride diluted in PAD4 assay buffer (50 mM MOPS [3-(N-morpholino) propanesulfonic acid], pH 7.6; 50 mM sodium chloride; 0.05% Tween-20; 2 mM dithiothreitol) was added to the compound-containing plate and was incubated for 30 minutes at 25° C. Ten microliters of a solution of BAEE (Sigma-Aldrich #B4500) diluted in PAD4 assay buffer was then added to start the reaction. Final concentrations were 5 nM PAD4, 2 mM calcium chloride, and 3 mM BAEE. The reaction mixture was incubated at 25° C. for 2 hours and was stopped with the addition of 10 microliters of a solution of 75 mM EDTA (Ethylenediaminetetraacetic acid) in PAD4 assay buffer. Thirty microliters of detection solution (5 mM o-phthalaldehyde, 50 mM MOPS [3-(N-morpholino) propanesulfonic acid], pH 7.6; 50 mM sodium chloride; 0.05% Tween-20; 5 mM dithiothreitol) was then added and the reaction was incubated for 1 hour at 25° C.
Usually IC50 stands for the point on the concentration scale where inhibition reaches its midpoint. On to `C=CCN[C@@H]1CC[C@@H]2CC[C@H]1N2C(=O)c1cc(OC)n2c(C)c(-c3cc4ccc(N(C(F)F)S(C)(=O)=O)nc4n3CC3CC3)nc2c1` [Example 390, ~{N}-[1-(cyclopropylmethyl)-2-[5-methoxy-3-methyl-7-[(1~{R},2~{R},5~{R})-2-(prop-2-enylamino)-8-azabicyclo[3.2.1]octane-8-carbonyl]imidazo[1,2-a]pyridin-2-yl]pyrrolo [2,3-b]pyridin-6-yl]-~{N}-(difluoromethyl) methanesulfonamide], for which the concentration for half-maximal inhibition (IC50) worked out at 3790 nM.

Consider `COc1cc(C(=O)N2[C@H]3CC[C@@H]2[C@H](N)C3)cc2nc(-c3cc4ccc([C@@H](C)Nc5ccc(F)cn5)nc4n3CC3CC3)c(C)n12` [Example 259, ((1R,2R,4S)-2-amino-7-azabicyclo[2.2.1]heptan-7-yl)(2-(1-(cyclopropylmethyl)-6-((R)-1-((5-fluoropyridin-2-yl)amino)ethyl)-1H-pyrrolo[2,3-b]pyridin-2-yl)-5-methoxy-3-methylimidazo[1,2-a]pyridin-7-yl)methanone], for which the IC50 came to 180 nM.

`COc1cc(C(=O)N2CCC[C@@H](N)C2)cc2nc(-c3cc4ccc([C@@H](C)N(C)C(C)=O)nc4n3CC3CC3)c(C)n12` [Example 187, ~{N}-[(1~{R})-1-[2-[7-[(3~{R})-3-aminopiperidine-1-carbonyl]-5-methoxy-3-methylimidazo [1,2-a]pyridin-2-yl]-1-(cyclopropylmethyl)pyrrolo [2,3-b]pyridin-6-yl]ethyl]-~{N}-methylacetamide]: the IC50 was 300 nM.

For the compound `COc1cc(C(=O)N2[C@H]3CC[C@@H]2[C@H](N)C3)cc2nc(-c3cc4ccc([C@@H](C)NC(=O)CS(C)(=O)=O)nc4n3CC3CC3)c(C)n12` [Example 154, ~{N}-[(1~{R})-1-[2-[7-[(1~{R},2~{R},4~{S})-2-amino-7-azabicyclo[2.2.1]heptane-7-carbonyl]-5-methoxy-3-methylimidazo [1,2-a]pyridin-2-yl]-1-(cyclopropylmethyl)pyrrolo[2,3-b]pyridin-6-yl]ethyl]-2-methylsulfonylacetamide], the IC50 came to 53.4 nM.

For `COc1cc(C(=O)N2[C@H]3CC[C@@H]2[C@H](N)C3)cc2nc(-c3cc4ccc([C@@H](C)NC(=O)N(C)Cc5cccnc5)nc4n3CC3CC3)c(C)n12` [Example 222, 3-[(1~{R})-1-[2-[7-[(1~{R},2~{R},4~{S})-2-amino-7-azabicyclo[2.2.1]heptane-7-carbonyl]-5-methoxy-3-methylimidazo [1,2-a]pyridin-2-yl]-1-(cyclopropylmethyl)pyrrolo [2,3-b]pyridin-6-yl]ethyl]-1-methyl-1-(pyridin-3-ylmethyl)urea], the IC50 came out at 20 nM.

Regarding `COc1cc(C(=O)N2[C@H]3CC[C@@H]2[C@H](N)C3)cc2nc(-c3cc4ccc(C(C)CC(N)=O)nc4n3CC3CC3)c(C)n12` (some centres unmarked) [Example 520, 3-[2-[7-[(1~{R},2~{R}, 4~{S})-2-amino-7-azabicyclo[2.2.1]heptane-7-carbonyl]-5-methoxy-3-methylimidazo[1,2-a]pyridin-2-yl]-1-(cyclopropylmethyl)pyrrolo[2,3-b]pyridin-6-yl]butanamide], the IC50 was determined as 73.8 nM.

`CNC(=O)CC(C)(C)c1ccc2cc(-c3nc4cc(C(=O)N5[C@H]6CC[C@@H]5[C@H](N)C6)cc(OC)n4c3C)n(CC3CC3)c2n1` [Example 539, 3-[2-[7-[(1~{R},2~{R}, 4~{S})-2-amino-7-azabicyclo[2.2.1]heptane-7-carbonyl]-5-methoxy-3-methylimidazo[1,2-a]pyridin-2-yl]-1-(cyclopropylmethyl)pyrrolo[2,3-b]pyridin-6-yl]-~{N},3-dimethylbutanamide]: the IC50 was 58.6 nM.

As to `COc1cc(C(=O)N2[C@H]3CC[C@@H]2[C@H](N)C3)cc2nc(-c3cc4ccc([C@@H](C)NC(=O)c5cc6n(c5)CCOC6)nc4n3CC3CC3)c(C)n12` [Example 62, ~{N}-[(1~{R})-1-[2-[7-[(1~{R},2~{R}, 4~{S})-2-amino-7-azabicyclo[2.2.1]heptane-7-carbonyl]-5-methoxy-3-methylimidazo [1,2-a]pyridin-2-yl]-1-(cyclopropylmethyl)pyrrolo[2,3-b]pyridin-6-yl]ethyl]-3,4-dihydro-1~{H}-pyrrolo [2,1-c][1,4]oxazine-7-carboxamide], the half-inhibitory concentration (IC50) worked out at 48.3 nM.

Take `COc1cc(C(=O)N2[C@H]3CC[C@@H]2[C@H](N)C3)cc2nc(-c3cc4ccc([C@@H](C)N(C)C(=O)c5ccccc5)nc4n3CC3CC3)c(C)n12` [Example 185, ~{N}-[(1~{R})-1-[2-[7-[(1~{R},2~{R},4~{S})-2-amino-7-azabicyclo[2.2.1]heptane-7-carbonyl]-5-methoxy-3-methylimidazo [1,2-a]pyridin-2-yl]-1-(cyclopropylmethyl)pyrrolo [2,3-b]pyridin-6-yl]ethyl]-~{N}-methylbenzamide]: the IC50 was 139 nM.

As for `COc1ccccc1C(=O)N[C@H](C)c1ccc2cc(-c3nc4cc(C(=O)N5[C@H]6CC[C@@H]5[C@H](N)C6)cc(OC)n4c3C)n(CC3CC3)c2n1` [Example 17], the IC50 came out at 348 nM.

For the compound `CCOC1C[C@@H]2CN(C(=O)c3cc(OC)n4c(C)c(-c5cc6ccc(N(C(F)F)S(C)(=O)=O)nc6n5CC5CC5)nc4c3)[C@H]1[C@@H]2N` (stereo partly drawn) [Example 371, N-[2-[7-[(1S,4R,7R)-7-amino-6-ethoxy-2-azabicyclo[2.2.1]heptane-2-carbonyl]-5-methoxy-3-methyl-imidazo[1,2-a]pyridin-2-yl]-1-(cyclopropylmethyl)pyrrolo [2,3-b]pyridin-6-yl]-N-(difluoromethyl) methanesulfonamide], the IC50 was determined as 10600 nM.

Regarding `COc1cc(C(=O)N2C[C@H]3CC[C@@H]2[C@H](N)C3)cc2nc(-c3cc4ccc(N(C(F)F)S(C)(=O)=O)nc4n3CC3CC3)c(C)n12` [Example 376, ~{N}-[2-[7-[(1~{R},4~{S}, 6~{R})-6-amino-2-azabicyclo[2.2.2]octane-2-carbonyl]-5-methoxy-3-methylimidazo[1,2-a]pyridin-2-yl]-1-(cyclopropylmethyl)pyrrolo [2,3-b]pyridin-6-yl]-~{N}-(difluoromethyl) methanesulfonamide], the IC50 was found to be 404 nM.

Turning to `COc1cc(C(=O)N2[C@H]3CC[C@@H]2[C@H](N)C3)cc2nc(-c3cc4ccc([C@@H](C)NC(=O)N5C[C@H]6OCC[C@H]65)nc4n3CC3CC3)c(C)n12` [Example 196, (1~{R},5~{R})-~{N}-[(1~{R})-1-[2-[7-[(1~{R},2~{R},4~{S})-2-amino-7-azabicyclo[2.2.1]heptane-7-carbonyl]-5-methoxy-3-methylimidazo [1,2-a]pyridin-2-yl]-1-(cyclopropylmethyl)pyrrolo [2,3-b]pyridin-6-yl]ethyl]-2-oxa-6-azabicyclo [3.2.0]heptane-6-carboxamide], the 50% inhibitory concentration (IC50) amounted to 29.3 nM.

With `COc1cc(C(=O)N2[C@H]3CC[C@@H]2[C@H](N)C3)cc2nc(-c3cc4ccc([C@@H](C)NC(=O)C5(C(F)(F)F)CCC5)nc4n3CC3CC3)c(C)n12` [Example 44, ~{N}-[(1~{R})-1-[2-[7-[(1~{R},2~{R},4~{S})-2-amino-7-azabicyclo[2.2.1]heptane-7-carbonyl]-5-methoxy-3-methylimidazo [1,2-a]pyridin-2-yl]-1-(cyclopropylmethyl)pyrrolo[2,3-b]pyridin-6-yl]ethyl]-1-(trifluoromethyl) cyclobutane-1-carboxamide], the IC50 is 56.1 nM.
